According to US20120289524A1, “PYRROLO [3,2-E] [1,2,4] TRIAZOLO [1,5-A] PYRIMIDINES DERIVATIVES AS INHIBITORS OF MICROGLIA ACTIVATION” (Senexis Limited, priority 2009, published 2012):
Read-outs that look alike come from different tables or passages of the source.

Columns and labels:
[1] = test system: Mouse BALB/c monocyte macrophages, J774.2; assay: Inhibition of β-amyloid induced activation: TNF-alpha release (ELISA / Meso Scale Discovery); format: cell-based; settings: J774.2 cells, 20 μM Aβ(1-42), 50 U/ml Interferon gamma, 24 hours, read-out: IC50 (μM) TNF-α release
Description: (§1) 1. Inhibition of β-amyloid Induced Activation.
(§2) Mouse BALB/c monocyte macrophages, J774.2, {ECACC 85011428} were grown and sub-cultured in cell media (DMEM containing 10% FBS, 1% L-glutamine and 1% penicillin/streptomycin). The J774 cells were plated at 100,000 cells/well in 50 μl cell media on 96 well plates and placed in a 37° C., 5% CO2 incubator overnight prior to experiments.
(§3) The addition of Aβ(1-42) and compounds to the J774 cells was performed using a Biotek precision 2000 liquid handling instrument. 3 μl of compound in DMSO ranging from 8 μM to 6 mM were pipetted into a “daughter plate” containing 294 μl of cell media and mixed thoroughly. 3 μl of Aβ(1-42) in DMSO at 4 mM was then added to the “daughter plate” and mixed thoroughly. 50 μl was then removed from the “daughter plate” and added to the plated J774 cells. The final concentrations in the wells containing 100 μl cell media were 20 μM Aβ(1-42), the compounds ranged from ˜40 nM to 30 μM in 1% DMSO and also in the presence of 50 U/ml Interferon gamma. The plates were incubated for 24 hours in a 37° C., 5% CO2 incubator. After 24 hours incubation the media from the wells were collected and stored at −20° C. until required for testing.
The TNF-alpha levels in the media were tested using a TNF-alpha ELISA (R&D Systems MTA00) or Meso Scale Discovery MS6000 Mouse Proinflammatory-7 kit, using the manufacturers instructions.

Pharmacokinetic data = settings: in vivo; for bioavailability: oral
[2] = test system: Mouse BALB/c monocyte macrophages, J774.2; assay: Inhibition of β-amyloid induced activation: nitric oxide release (Griess assay); format: cell-based; settings: J774.2 cells, 20 μM Aβ(1-42), 50 U/ml Interferon gamma, 24 hours, read-out: IC50 (μM) NO release
Description: as §1, §2, §3
The nitric oxide levels in the media were tested using the Griess assay (Promega G2930) using the manufacturer's instructions.

[3] = iv, read-out: T1/2 i.v. (converted)
[4] = per oral, read-out: T1/2 per oral (converted)

IC50 [1] | half-life (Pharmacokinetic data; [3]) | bioavailability (Pharmacokinetic data) | half-life (Pharmacokinetic data; [4]) | IC50 [2] | SMILES
> 30 µM | – | – | – | – | Cc1nc2ncnn2c2c1CCN2[C@H](C)c1ccccc1 [Compound 4, reference compound]
0.48 µM | 52.2 min | 98.5% | 192 min | 0.24 µM | Cc1nc2ncnn2c2c1CCN2[C@@H](C)c1ccc(F)cc1 [Compound 1]
– | 13.2 min | 34.5% | 144 min | – | Cc1nc2ncnn2c2c1CCN2[C@@H](C)c1ccccc1 [reference compound]
